Columns and labels:
A375 subcutaneous tumor = assay: A375 melanoma xenograft in nude mice; type: in vivo; conditions: A375, 15 mg/kg daily intraperitoneal, 21 days, p<0.05
Procedure: Kinase Profiler Screening: Kinase specificity screening was performed with Invitrogen's SelectScreen® Kinase Profiling Services http://www.invitrogen.com/site/us/en/home/Products-and-Services/Services/Discoverv-Research/SelectScreen-Profiling-Service/SelectScreen-Kinase-Profiling-Service.html. The screening was performed with 1 μM compound, INT2-31, 10 μM ATP, and kinase substrates against ten recombinant kinases according to Z′-LYTET™ Kinase Assay. For PI3 kinase activity, 100 μM ATP, and kinase substrate were utilized with the Invitrogen Adapta® Universal Kinase Assay protocol. Tumor Growth in Nude Mice in vivo: Six week old athymic, female nude mice were purchased from Harlan Laboratory. The mice were maintained in the animal facility, and all experiments were performed in compliance with NIH animal-use guidelines and under an IACUC approved protocol. […] Tumor diameters were measured with calipers, and tumor volume in mm^3 was calculated using the formula [(width)^2×length]/2. At the end of experiment, tumor weight and volume were determined.
For the melanoma study, the University of Florida IACUC approved the following protocol (IACUC Study #200801077). […] Tumor diameters were measured with calipers, and tumor volume in mm^3 was calculated using the formula [(width)^2×length]/2. At the end of experiment, tumor weight and volume were determined.

[1] = test system: TE9 esophageal cancer cells; assay: Cell viability (MTT), TE9; type: cell-based; conditions: TE9, 72 hours; read-out: IC50 of INT2-31, cell viability
Procedure: Cell viability (MTT) and CFSE Proliferation assay: Cells were plated in 96-well plates and let adhere overnight. After cell treatment, cell viability was measured by 3-(4,5-dimethylthiazol-2-yl)-2,5-diphenyl tetrazolium bromide (MTT) assay (CellTiter 96® Aqueous, Promega, Madison, Wis.).
Cell viability and detachment assays: After cells were treated with siRNA transfection, cell viability was measured by 3-(4,5-dimethylthiazol2-yl)-2,5-diphenyl tetrazolium bromide (MTT) assay (CellTiter 96® AQueous, Promega, Madison, Wis.). Briefly, 20 μl of the tetrazolium compound was added to each well. The cells were then incubated at 37° C. for 1 h. The plate was read at 490 nm with a plate reader to determine the viability. In detachment assays, detached and attached cells were harvested separately and counted in a hemocytometer. The percentage of detachment was calculated by dividing the number of detached cells by the total number of cells. Apoptosis assays: After treatment, attached and detached cells were collected, counted and prepared for terminal uridine deoxynucleotidyl transferase (TUNEL) assay by utilizing an APO-BRDU kit (BD Pharmingen, San Diego, Calif.) according to the manufacturer's instructions. Stained cells were analyzed with a fluorescence-activated cell sorting-Calibur flow cytometer (BD Biosciences). […] Apoptotic cells were also analyzed by Hoechst staining. […]

SMILES: CSc1ncnc2c1ccn2C1O[C@H](COP(=O)(O)O)[C@@H](O)[C@H]1O (stereo partly drawn) [INT2-31, 4-(Methylthio)-7-(5-O-phosphono-D-ribofuranosyl)-{7H-Pyrrolo[2,3-d]pyrimidine}]
- subcutaneous tumor growth compared to PBS control (A375 subcutaneous tumor): significant decrease
- IC50 [1]: 3.6 µM

— patent publication US20120107323A1, “KINASE PROTEIN BINDING INHIBITORS” (University of Florida, priority 2009, published 2012)
